This note sets out measurements from ChEMBL document CHEMBL1909046, “DrugMatrix in vitro pharmacology data”.

For one data set, the target named is Cytochrome P450 2D6 (Homo sapiens, UniProt P10635). As to conditions: bti-tn-5b1-4. Further: in other assays of this panel Not Active means under 50% inhibition at 10 µM.
Data set [1] has as its target 5-hydroxytryptamine receptor 2B (Homo sapiens, UniProt P41595). The class given is cell membranes, CHO-K1, Membrane. Further: in other assays of this panel Not Active means under 50% inhibition at 10 µM.
The next data set addresses T1, Glucocorticoid receptor (Homo sapiens, UniProt P04150).
T1 sequence (P04150 whole entry): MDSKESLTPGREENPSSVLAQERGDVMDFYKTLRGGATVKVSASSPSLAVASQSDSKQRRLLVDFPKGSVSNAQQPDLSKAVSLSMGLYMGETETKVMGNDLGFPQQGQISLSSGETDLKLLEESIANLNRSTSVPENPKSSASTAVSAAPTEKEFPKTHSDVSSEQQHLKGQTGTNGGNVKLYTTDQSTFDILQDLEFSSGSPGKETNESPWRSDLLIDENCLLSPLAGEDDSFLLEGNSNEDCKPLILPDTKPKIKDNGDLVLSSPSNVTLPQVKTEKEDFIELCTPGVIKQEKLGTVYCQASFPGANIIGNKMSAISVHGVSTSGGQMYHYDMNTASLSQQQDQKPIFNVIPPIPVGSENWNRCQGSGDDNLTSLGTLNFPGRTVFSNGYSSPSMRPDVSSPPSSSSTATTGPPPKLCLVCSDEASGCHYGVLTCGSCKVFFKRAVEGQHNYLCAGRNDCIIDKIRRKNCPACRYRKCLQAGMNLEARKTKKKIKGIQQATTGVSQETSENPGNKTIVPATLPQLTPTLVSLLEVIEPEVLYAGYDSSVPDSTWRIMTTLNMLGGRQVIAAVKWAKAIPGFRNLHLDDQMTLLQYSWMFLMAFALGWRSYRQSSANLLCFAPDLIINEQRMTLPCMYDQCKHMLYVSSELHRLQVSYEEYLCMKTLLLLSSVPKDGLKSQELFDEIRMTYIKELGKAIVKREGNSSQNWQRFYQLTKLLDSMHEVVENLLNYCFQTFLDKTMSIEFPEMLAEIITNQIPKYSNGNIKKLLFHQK
The settings on record: hela s3.

The target in another data set is T2, Estrogen receptor (Homo sapiens, UniProt P03372). Further: in other assays of this panel Not Active means under 50% inhibition at 10 µM.
T2 sequence (P03372 whole entry): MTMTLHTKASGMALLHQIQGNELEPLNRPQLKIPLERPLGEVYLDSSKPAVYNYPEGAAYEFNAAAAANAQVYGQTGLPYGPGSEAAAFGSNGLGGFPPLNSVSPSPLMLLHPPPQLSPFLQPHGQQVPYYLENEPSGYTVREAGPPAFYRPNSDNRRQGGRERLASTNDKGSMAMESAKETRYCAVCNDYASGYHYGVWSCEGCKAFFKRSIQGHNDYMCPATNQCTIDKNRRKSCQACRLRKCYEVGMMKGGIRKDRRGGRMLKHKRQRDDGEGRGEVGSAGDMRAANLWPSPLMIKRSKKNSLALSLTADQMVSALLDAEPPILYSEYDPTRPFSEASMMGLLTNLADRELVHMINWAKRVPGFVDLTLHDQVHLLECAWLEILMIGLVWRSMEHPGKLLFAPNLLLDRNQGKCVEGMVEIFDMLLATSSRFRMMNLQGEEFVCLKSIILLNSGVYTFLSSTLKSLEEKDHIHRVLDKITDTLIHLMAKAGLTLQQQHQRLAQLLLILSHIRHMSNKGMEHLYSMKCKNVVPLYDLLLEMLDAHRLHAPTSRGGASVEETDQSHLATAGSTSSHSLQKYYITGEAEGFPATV
The settings on record: sf9.

Data set [2] concerns the target Sodium-dependent noradrenaline transporter (Homo sapiens, UniProt P23975). Nature of the data set: DRUGMATRIX: Norepinephrine Transporter radioligand binding (ligand: [125I] RTI-55). The class given is cell membranes, MDCK, Membrane. As to conditions: mdck; Not Active = under 50% inhibition at 10 µM.
The next data set has as its target T3, Cytochrome P450 1A2 (Homo sapiens, UniProt P05177). Further: in other assays of this panel Not Active means under 50% inhibition at 10 µM.
T3 sequence (P05177 whole entry): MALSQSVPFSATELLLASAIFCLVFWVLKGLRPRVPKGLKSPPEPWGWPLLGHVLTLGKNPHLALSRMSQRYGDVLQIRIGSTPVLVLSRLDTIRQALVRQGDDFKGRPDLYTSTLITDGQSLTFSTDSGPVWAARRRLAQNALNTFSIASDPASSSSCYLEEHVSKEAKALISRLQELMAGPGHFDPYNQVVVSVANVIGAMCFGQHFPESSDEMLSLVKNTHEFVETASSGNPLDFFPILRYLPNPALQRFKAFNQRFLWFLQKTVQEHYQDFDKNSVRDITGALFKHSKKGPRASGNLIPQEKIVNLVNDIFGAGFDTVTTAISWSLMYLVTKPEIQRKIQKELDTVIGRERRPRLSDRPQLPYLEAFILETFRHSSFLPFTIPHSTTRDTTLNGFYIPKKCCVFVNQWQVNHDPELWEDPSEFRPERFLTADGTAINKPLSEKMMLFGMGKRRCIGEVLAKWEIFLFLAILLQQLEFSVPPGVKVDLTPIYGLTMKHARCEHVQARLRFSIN
As to conditions: bti-tn-5b1-4.

The target of the next data set is Cytochrome P450 2C9 (Homo sapiens, UniProt P11712). The settings on record: bti-tn-5b1-4. Further: in other assays of this panel Not Active means under 50% inhibition at 10 µM.
Chain of Cytochrome P450 2C9 (P11712 whole entry): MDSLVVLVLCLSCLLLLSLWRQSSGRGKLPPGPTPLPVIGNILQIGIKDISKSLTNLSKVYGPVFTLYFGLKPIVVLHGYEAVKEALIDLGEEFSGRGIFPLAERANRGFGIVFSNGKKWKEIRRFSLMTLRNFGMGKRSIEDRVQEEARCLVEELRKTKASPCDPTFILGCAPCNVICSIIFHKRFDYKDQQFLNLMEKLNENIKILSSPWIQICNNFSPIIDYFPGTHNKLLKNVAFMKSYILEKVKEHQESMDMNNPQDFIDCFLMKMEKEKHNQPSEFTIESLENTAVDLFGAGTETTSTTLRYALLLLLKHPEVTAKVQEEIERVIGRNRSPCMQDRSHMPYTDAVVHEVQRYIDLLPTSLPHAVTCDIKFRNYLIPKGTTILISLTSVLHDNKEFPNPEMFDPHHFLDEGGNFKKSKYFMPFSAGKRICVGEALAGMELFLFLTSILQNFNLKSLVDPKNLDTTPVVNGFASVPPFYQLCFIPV

What is called IC50 is the concentration that gives 50% inhibition. By Ki is commonly meant the dissociation constant of the complex between target and ligand, obtained from inhibition or displacement.

Chain of Sodium-dependent noradrenaline transporter (P23975 whole entry): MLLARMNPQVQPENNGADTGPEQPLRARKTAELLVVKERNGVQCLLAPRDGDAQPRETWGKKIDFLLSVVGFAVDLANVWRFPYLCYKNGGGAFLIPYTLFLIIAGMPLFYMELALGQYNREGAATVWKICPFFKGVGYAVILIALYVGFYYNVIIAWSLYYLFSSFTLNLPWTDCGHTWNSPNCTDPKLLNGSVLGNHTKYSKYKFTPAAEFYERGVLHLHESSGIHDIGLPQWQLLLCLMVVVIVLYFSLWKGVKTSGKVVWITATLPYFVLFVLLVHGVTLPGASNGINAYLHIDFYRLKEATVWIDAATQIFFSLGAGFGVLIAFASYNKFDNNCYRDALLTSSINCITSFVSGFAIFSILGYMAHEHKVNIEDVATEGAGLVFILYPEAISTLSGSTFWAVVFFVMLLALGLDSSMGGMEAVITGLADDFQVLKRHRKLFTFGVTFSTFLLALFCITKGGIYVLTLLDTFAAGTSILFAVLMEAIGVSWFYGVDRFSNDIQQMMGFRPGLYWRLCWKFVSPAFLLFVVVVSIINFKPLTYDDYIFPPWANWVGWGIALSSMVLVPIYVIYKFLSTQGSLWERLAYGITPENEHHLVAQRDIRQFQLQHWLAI
Chain of Cytochrome P450 2D6 (P10635 whole entry): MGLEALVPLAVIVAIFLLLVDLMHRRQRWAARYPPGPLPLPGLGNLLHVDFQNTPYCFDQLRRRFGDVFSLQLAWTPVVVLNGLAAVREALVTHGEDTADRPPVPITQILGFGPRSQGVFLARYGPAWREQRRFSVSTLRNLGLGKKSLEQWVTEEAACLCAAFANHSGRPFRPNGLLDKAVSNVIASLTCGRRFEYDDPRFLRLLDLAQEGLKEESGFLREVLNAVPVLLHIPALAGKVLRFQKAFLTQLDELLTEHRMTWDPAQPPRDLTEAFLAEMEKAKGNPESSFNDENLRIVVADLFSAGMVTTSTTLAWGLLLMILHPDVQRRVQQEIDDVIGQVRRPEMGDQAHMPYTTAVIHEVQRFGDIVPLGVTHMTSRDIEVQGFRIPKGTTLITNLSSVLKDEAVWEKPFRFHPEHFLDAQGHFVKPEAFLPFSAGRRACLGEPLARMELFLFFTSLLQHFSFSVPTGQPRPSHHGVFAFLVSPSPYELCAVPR
Chain of 5-hydroxytryptamine receptor 2B (P41595 whole entry): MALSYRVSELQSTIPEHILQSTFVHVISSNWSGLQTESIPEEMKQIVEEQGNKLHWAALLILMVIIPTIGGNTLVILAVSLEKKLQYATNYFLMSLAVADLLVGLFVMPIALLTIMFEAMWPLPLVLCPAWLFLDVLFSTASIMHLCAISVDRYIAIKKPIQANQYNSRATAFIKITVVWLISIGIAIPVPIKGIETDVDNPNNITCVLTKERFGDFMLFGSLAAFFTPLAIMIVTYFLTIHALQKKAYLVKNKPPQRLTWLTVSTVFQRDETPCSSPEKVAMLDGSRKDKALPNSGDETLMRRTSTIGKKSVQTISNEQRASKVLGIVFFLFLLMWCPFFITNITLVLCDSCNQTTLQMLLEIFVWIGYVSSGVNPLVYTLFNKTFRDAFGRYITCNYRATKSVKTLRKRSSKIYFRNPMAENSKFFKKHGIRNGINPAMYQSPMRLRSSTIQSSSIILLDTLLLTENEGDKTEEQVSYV

Take `Cc1cnc(NC(=O)C2=C(O)c3ccccc3S(=O)(=O)N2C)s1` [MELOXICAM]: the IC50 result (against Cytochrome P450 2D6; in data set [1] (cho-k1); on Glucocorticoid receptor; on Estrogen receptor; in data set [2]; against Cytochrome P450 1A2) was “Not Active” throughout. Besides, the IC50 entry at Cytochrome P450 2C9 was “Not Active”. Moreover, the Ki entry at Cytochrome P450 2D6, on Cytochrome P450 1A2 and on Cytochrome P450 2C9 was “Not Active” in each case.

Take `CC(C)(C)NC[C@H](O)COc1cccc2c1CCCC2=O` [LEVOBUNOLOL]: the IC50 entry (at Cytochrome P450 2D6; in data set [1] (cho-k1); on Glucocorticoid receptor; against Estrogen receptor; in data set [2]; against Cytochrome P450 1A2) was “Not Active” throughout. The IC50 entry against Cytochrome P450 2C9 is given as “Not Active”. The Ki result at Cytochrome P450 2D6, on Cytochrome P450 1A2 and on Cytochrome P450 2C9 was “Not Active” throughout.

Take `O=[As][O-].[Na+]` [SODIUM ARSENITE]: the IC50 result (at Cytochrome P450 2D6; in data set [1] (cho-k1); at Glucocorticoid receptor; on Estrogen receptor; in data set [2]; against Cytochrome P450 1A2) was “Not Active” throughout. Besides, the IC50 entry at Cytochrome P450 2C9 is given as “Not Active”. The Ki result at Cytochrome P450 2D6, on Cytochrome P450 1A2 and on Cytochrome P450 2C9 was “Not Active” in each case.

Regarding `Cc1ccc(Cl)c(Nc2ccccc2C(=O)O)c1Cl` [MECLOFENAMIC ACID], the IC50 entry (at Cytochrome P450 2D6; in data set [1] (cho-k1); against Glucocorticoid receptor; on Estrogen receptor; in data set [2]; at Cytochrome P450 1A2) was “Not Active” each time. On Cytochrome P450 2C9, the IC50 entry is recorded as “Not Active”. The Ki entry at Cytochrome P450 2D6, on Cytochrome P450 1A2 and on Cytochrome P450 2C9 was “Not Active” in each case.

With LEAD(IV) ACETATE, the IC50 result (against Cytochrome P450 2D6; in data set [1] (cho-k1); on Glucocorticoid receptor; at Estrogen receptor; in data set [2]; against Cytochrome P450 1A2) was “Not Active” in each case. Besides, on Cytochrome P450 2C9, the IC50 result is listed as “Not Active”. The Ki entry (at Cytochrome P450 2D6; in data set [1] (cho-k1); on Glucocorticoid receptor; on Estrogen receptor; in data set [2]; at Cytochrome P450 1A2) was “Not Active” in each case. Besides, the Ki entry on Cytochrome P450 2C9 is recorded as “Not Active”.

With `CC[C@H](C)C(=O)O[C@H]1CCC=C2C=C[C@H](C)[C@H](CC[C@@H]3C[C@@H](O)CC(=O)O3)[C@H]21` [MEVASTATIN], the IC50 result (on Cytochrome P450 2D6; in data set [1] (cho-k1); against Glucocorticoid receptor; against Estrogen receptor; in data set [2]; against Cytochrome P450 1A2) was “Not Active” throughout. Besides, the IC50 entry against Cytochrome P450 2C9 is on record as “Not Active”. Further, the Ki result at Cytochrome P450 2D6, at Cytochrome P450 1A2 and at Cytochrome P450 2C9 was “Not Active” each time.

With `CC1=C(/C=C/C(C)=C/C=C/C(C)=C/C(=O)O)C(C)(C)CCC1` [TRETINOIN], the IC50 result at Cytochrome P450 2D6 is “Not Active”; in data set [1] (read-out: IC50), 358 nM; on Glucocorticoid receptor, “Not Active”; against Estrogen receptor, “Not Active”; in data set [2], “Not Active”; against Cytochrome P450 1A2, “Not Active”. Also, the IC50 result against Cytochrome P450 2C9 is listed as “Not Active”. For the same molecule, the Ki entry at Cytochrome P450 2D6 was “Not Active”; in data set [1] (read-out: Ki), 228 nM; at Cytochrome P450 1A2, “Not Active”; at Cytochrome P450 2C9, “Not Active”.

As for `CC[C@@]1(O)C(=O)OCc2c1cc1n(c2=O)Cc2cc3c(CN(C)C)c(O)ccc3nc2-1` [TOPOTECAN], the IC50 result (against Cytochrome P450 2D6; in data set [1] (cho-k1); at Glucocorticoid receptor; against Estrogen receptor; in data set [2]; at Cytochrome P450 1A2) was “Not Active” each time. In addition, at Cytochrome P450 2C9, the IC50 result is “Not Active”. The Ki result on Cytochrome P450 2D6, on Cytochrome P450 1A2 and on Cytochrome P450 2C9 was “Not Active” in each case.

As to `CC1(C)[C@H](C(=O)O)N2C(=O)C[C@H]2S1(=O)=O` [SULBACTAM], the IC50 result (against Cytochrome P450 2D6; in data set [1] (cho-k1); against Glucocorticoid receptor; at Estrogen receptor; in data set [2]; against Cytochrome P450 1A2) was “Not Active” in each case. The IC50 entry on Cytochrome P450 2C9 is “Not Active”. Also, the Ki entry at Cytochrome P450 2D6, on Cytochrome P450 1A2 and at Cytochrome P450 2C9 was “Not Active” throughout.

`COC(=O)Nc1nc2ccc(C(=O)c3ccccc3)cc2[nH]1` [MEBENDAZOLE]: the IC50 entry (on Cytochrome P450 2D6; in data set [1] (cho-k1); against Glucocorticoid receptor; at Estrogen receptor; in data set [2]; against Cytochrome P450 1A2) was “Not Active” each time. Moreover, the IC50 entry on Cytochrome P450 2C9 is “Not Active”. Moreover, the Ki entry on Cytochrome P450 2D6, on Cytochrome P450 1A2 and at Cytochrome P450 2C9 was “Not Active” throughout.

With `Cc1ccnc(NS(=O)(=O)c2ccc(N)cc2)n1` [SULFAMERAZINE], the IC50 entry (at Cytochrome P450 2D6; in data set [1] (cho-k1); against Glucocorticoid receptor; against Estrogen receptor; in data set [2]; at Cytochrome P450 1A2) was “Not Active” in each case. On Cytochrome P450 2C9, the IC50 entry is “Not Active”. For the same molecule, the Ki result at Cytochrome P450 2D6, on Cytochrome P450 1A2 and at Cytochrome P450 2C9 was “Not Active” throughout.

As to `Cc1cccc(C)c1NC(=O)C(C)N` (stereo not given) [TOCAINIDE], the IC50 result (at Cytochrome P450 2D6; in data set [1] (cho-k1); against Glucocorticoid receptor; on Estrogen receptor; in data set [2]; at Cytochrome P450 1A2) was “Not Active” each time. In addition, the IC50 entry against Cytochrome P450 2C9 is listed as “Not Active”. Further, the Ki entry on Cytochrome P450 2D6, on Cytochrome P450 1A2 and on Cytochrome P450 2C9 was “Not Active” in each case.

With `CO[C@@H]1[C@@H](OC)[C@H](C)[C@@](O)(CC(=O)O)O[C@H]1[C@H](C)[C@H]1O[C@@]2(CC[C@@](C)([C@H]3CC[C@@](C)([C@@H]4O[C@@H]([C@H]5O[C@](C)(O)[C@H](C)C[C@@H]5C)C[C@@H]4O[C@@H]4C[C@H](OC)[C@@H](OC)[C@H](C)O4)O3)O2)C[C@H](O)[C@H]1C.N` [MADURAMICIN], the IC50 entry (at Cytochrome P450 2D6; in data set [1] (cho-k1); against Glucocorticoid receptor; on Estrogen receptor; in data set [2]; at Cytochrome P450 1A2) was “Not Active” throughout. At Cytochrome P450 2C9, the IC50 entry was “Not Active”. Further, the Ki entry on Cytochrome P450 2D6, on Cytochrome P450 1A2 and on Cytochrome P450 2C9 was “Not Active” in each case.

For `CC(N)C12CC3CC(CC(C3)C1)C2` (stereo not given) [RIMANTADINE], the IC50 entry (against Cytochrome P450 2D6; in data set [1] (cho-k1); at Glucocorticoid receptor; against Estrogen receptor; in data set [2]; on Cytochrome P450 1A2) was “Not Active” in each case. Further, the IC50 result against Cytochrome P450 2C9 is “Not Active”. Further, the Ki result at Cytochrome P450 2D6, at Cytochrome P450 1A2 and on Cytochrome P450 2C9 was “Not Active” each time.
